Reference: publication PMC13210772, “Dual FLT3/MAPK14 Proteolysis-Targeting Chimera (PROTAC) Induces Potent Acute Myeloid Leukemia Cell Death” (Pharmaceuticals, 2026)

What was measured:
Test in all cases: NanoBRET CELLinib128
Type in all cases: binding
[1] = target: T1, CSNK1G2 (Homo sapiens, UniProt P78368); settings: 1 µM; 100% no effect, 0% complete tracer displacement
T1 construct: Full-length kinase ORF (Promega, Madison, WI, USA) cloned in frame with a NanoLuc-vector was transfected into HEK293T cells; host or cells: HEK293T
Experimental: (§1) To get an impression about the binding strength of the PROTAC MA191 and the reference inhibitor MA68 to other kinases besides FLT3-ITD the binding on a kinase panel of further 128 representative protein kinases at 1 μM concentration was tested using the NanoBRET^TM cellular target engagement assay (CELLinib128 assay, CELLinib GmbH, Frankfurt, Germany). […] In none of the 128 kinases MA191 was able to displace the tracer (inhibitor) used by more than 50%, Table S1, Supplementary Information).
(§2) The CELLinib128 assay was performed by CELLinib GmbH, Frankfurt (Germany) as described previously. In brief: Full-length kinase ORF (Promega, Madison, WI, USA) cloned in frame with a NanoLuc-vector was transfected into HEK293T cells in Opti-MEM without phenol red (Life Technologies, Carlsbad, CA, USA) at a density of 2 × 10^5 cells/mL using FuGENE HD (Promega, E2312) and proteins were allowed to express for 20 h. For CDKs, where indicated below, an excess of an activator without an NLuc-fusion was cotransfected. […] The system was allowed to equilibrate at 37 °C for 2 h and 5% CO2 prior to BRET measurements. For PKCs, a chemical activator PMA was added in a final concentration of 1 µM was added together with test compounds and tracers (Promega, V1171). To measure BRET, NanoBRET^TM NanoGlo substrate + extracellular NanoLuc inhibitor (Promega, N2160) were added as per the manufacturer’s protocol, and filtered luminescence was measured (450 nm BP filter (donor) and 610 nm LP filter (acceptor)). For the 1-shot test compounds, data were normalized to the tracer control and the background control or control compound plateau and an average and SD were calculated. […] For the control compounds competitive displacement data were normalized to the tracer Ctrl and the background Ctrl and then plotted and fitted using GraphPad Prism 10 software using a normalized 3-parameter curve fit with the following equation: Y = 100/(1 + 10^X−LogIC50).

[2] = target: T2, ERN2 (Homo sapiens, UniProt Q76MJ5); settings: 100% no effect, 0% complete tracer displacement, read-out: Tracer bound
T2 construct: Full-length kinase ORF (Promega, Madison, WI, USA) cloned in frame with a NanoLuc-vector was transfected into HEK293T cells; host or cells: HEK293T
Experimental: as §1, §2

[3] = target: T3, TNK2 (Homo sapiens, UniProt Q07912); settings: 100% no effect, 0% complete tracer displacement, read-out: Tracer bound
T3 construct: Full-length kinase ORF (Promega, Madison, WI, USA) cloned in frame with a NanoLuc-vector; host or cells: HEK293T
Experimental: as §1, §2

[4] = target: T4, PRKAA1 (Homo sapiens, UniProt Q13131); settings: 100% no effect, 0% complete tracer displacement, read-out: Tracer bound
T4 construct: Full-length kinase ORF (Promega, Madison, WI, USA) cloned in frame with a NanoLuc-vector was transfected into HEK293T cells; host or cells: HEK293T
Experimental: as §1, §2

[5] = target: T5, STK35 (Homo sapiens, UniProt Q8TDR2); settings: 100% no effect, 0% complete tracer displacement, read-out: Tracer bound
T5 construct: Full-length kinase ORF (Promega, Madison, WI, USA) cloned in frame with a NanoLuc-vector was transfected into HEK293T cells; host or cells: HEK293T
Experimental: as §1, §2

[6] = target: T6, AURKB (Homo sapiens, UniProt Q96GD4); settings: 100% no effect, 0% complete tracer displacement, read-out: Tracer bound
T6 construct: Full-length kinase ORF (Promega, Madison, WI, USA) cloned in frame with a NanoLuc-vector was transfected into HEK293T cells; host or cells: HEK293T
Experimental: as §1, §2

[7] = target: T7, NEK3 (Homo sapiens, UniProt P51956); settings: 100% no effect, 0% complete tracer displacement, read-out: Tracer bound
T7 construct: Full-length kinase ORF (Promega, Madison, WI, USA) cloned in frame with a NanoLuc-vector was transfected into HEK293T cells; host or cells: HEK293T
Experimental: as §1, §2

[8] = target: T8, PAK6 (Homo sapiens, UniProt Q9NQU5); settings: 100% no effect, 0% complete tracer displacement, read-out: Tracer bound
T8 construct: Full-length kinase ORF (Promega, Madison, WI, USA) cloned in frame with a NanoLuc-vector was transfected into HEK293T cells; host or cells: HEK293T
Experimental: as §1, §2

[9] = target: T9, CDK14-CCNY (Homo sapiens, UniProt O94921); settings: 1 µM; 100% no effect, 0% complete tracer displacement
T9 construct: Full-length kinase ORF (Promega, Madison, WI, USA) cloned in frame with a NanoLuc-vector was transfected into HEK293T cells; host or cells: HEK293T
Experimental: as §1, §2

[10] = target: T10, TNK1 (Homo sapiens, UniProt Q13470); settings: 100% no effect, 0% complete tracer displacement, read-out: Tracer bound
T10 construct: Full-length kinase ORF (Promega, Madison, WI, USA) cloned in frame with a NanoLuc-vector; host or cells: HEK293T
Experimental: as §1, §2

[11] = target: T11, PAK4 (Homo sapiens, UniProt O96013); settings: 100% no effect, 0% complete tracer displacement, read-out: Tracer bound
T11 construct: Full-length kinase ORF (Promega, Madison, WI, USA) cloned in frame with a NanoLuc-vector was transfected into HEK293T cells; host or cells: HEK293T
Experimental: as §1, §2

[12] = target: T12, TNNI3K (Homo sapiens, UniProt Q59H18); settings: 100% no effect, 0% complete tracer displacement, read-out: Tracer bound
T12 construct: Full-length kinase ORF (Promega, Madison, WI, USA) cloned in frame with a NanoLuc-vector; host or cells: HEK293T
Experimental: as §1, §2

[13] = target: T13, CDK17-CCNY (Homo sapiens, UniProt Q00537); settings: 100% no effect, 0% complete tracer displacement, read-out: Tracer bound
T13 construct: Full-length kinase ORF (Promega, Madison, WI, USA) cloned in frame with a NanoLuc-vector was transfected into HEK293T cells; host or cells: HEK293T
Experimental: as §1, §2

[14] = target: T14, PRKCE-PMA (Homo sapiens, UniProt Q02156); settings: 100% no effect, 0% complete tracer displacement, read-out: Tracer bound
T14 construct: Full-length kinase ORF (Promega, Madison, WI, USA) cloned in frame with a NanoLuc-vector was transfected into HEK293T cells; host or cells: HEK293T
Experimental: as §1, §2

[15] = target: T15, HUNK (Homo sapiens, UniProt P57058); settings: 100% no effect, 0% complete tracer displacement, read-out: Tracer bound
T15 construct: Full-length kinase ORF (Promega, Madison, WI, USA) cloned in frame with a NanoLuc-vector was transfected into HEK293T cells; host or cells: HEK293T
Experimental: as §1, §2

[16] = target: T16, FGFR2 (Homo sapiens, UniProt P21802); settings: 100% no effect, 0% complete tracer displacement, read-out: Tracer bound
T16 construct: Full-length kinase ORF (Promega, Madison, WI, USA) cloned in frame with a NanoLuc-vector was transfected into HEK293T cells; host or cells: HEK293T
Experimental: as §1, §2

[17] = target: T17, LATS1 (Homo sapiens, UniProt O95835); settings: 100% no effect, 0% complete tracer displacement, read-out: Tracer bound
T17 construct: Full-length kinase ORF (Promega, Madison, WI, USA) cloned in frame with a NanoLuc-vector was transfected into HEK293T cells; host or cells: HEK293T
Experimental: as §1, §2

[18] = target: T18, MAP4K3 (Homo sapiens, UniProt Q8IVH8); settings: 1 µM; 100% no effect, 0% complete tracer displacement
T18 construct: Full-length kinase ORF (Promega, Madison, WI, USA) cloned in frame with a NanoLuc-vector was transfected into HEK293T cells; host or cells: HEK293T
Experimental: as §1, §2

[19] = target: T19, STK36 (Homo sapiens, UniProt Q9NRP7); settings: 100% no effect, 0% complete tracer displacement, read-out: Tracer bound
T19 construct: Full-length kinase ORF (Promega, Madison, WI, USA) cloned in frame with a NanoLuc-vector was transfected into HEK293T cells; host or cells: HEK293T
Experimental: as §1, §2

[20] = target: T20, MLTK (Homo sapiens, UniProt Q9NYL2); settings: 100% no effect, 0% complete tracer displacement, read-out: Tracer bound
T20 construct: Full-length kinase ORF (Promega, Madison, WI, USA) cloned in frame with a NanoLuc-vector was transfected into HEK293T cells; host or cells: HEK293T
Experimental: as §1, §2

[21] = target: T21, MAPK6 (Homo sapiens, UniProt Q16659); settings: 100% no effect, 0% complete tracer displacement, read-out: Tracer bound
T21 construct: Full-length kinase ORF (Promega, Madison, WI, USA) cloned in frame with a NanoLuc-vector was transfected into HEK293T cells; host or cells: HEK293T
Experimental: as §1, §2

[22] = target: T22, RPS6KA6 (Homo sapiens, UniProt Q9UK32); settings: 1 µM; 100% no effect, 0% complete tracer displacement
T22 construct: Full-length kinase ORF (Promega, Madison, WI, USA) cloned in frame with a NanoLuc-vector was transfected into HEK293T cells; host or cells: HEK293T
Experimental: as §1, §2

[23] = target: T23, PRKACB (Homo sapiens, UniProt P22694); settings: 100% no effect, 0% complete tracer displacement, read-out: Tracer bound
T23 construct: Full-length kinase ORF (Promega, Madison, WI, USA) cloned in frame with a NanoLuc-vector was transfected into HEK293T cells; host or cells: HEK293T
Experimental: as §1, §2

[24] = target: T24, CAMK2A (Homo sapiens, UniProt Q9UQM7); settings: 100% no effect, 0% complete tracer displacement, read-out: Tracer bound
T24 construct: Full-length kinase ORF (Promega, Madison, WI, USA) cloned in frame with a NanoLuc-vector was transfected into HEK293T cells; host or cells: HEK293T
Experimental: as §1, §2

[25] = target: T25, AURKC (Homo sapiens, UniProt Q9UQB9); settings: 100% no effect, 0% complete tracer displacement, read-out: Tracer bound
T25 construct: Full-length kinase ORF (Promega, Madison, WI, USA) cloned in frame with a NanoLuc-vector was transfected into HEK293T cells; host or cells: HEK293T
Experimental: as §1, §2

[26] = target: T26, RPS6KA3 (Homo sapiens, UniProt P51812); settings: 100% no effect, 0% complete tracer displacement, read-out: Tracer bound
T26 construct: Full-length kinase ORF (Promega, Madison, WI, USA) cloned in frame with a NanoLuc-vector was transfected into HEK293T cells; host or cells: HEK293T
Experimental: as §1, §2

[27] = target: T27, CSNK2A2 (Homo sapiens, UniProt P19784); settings: 100% no effect, 0% complete tracer displacement, read-out: Tracer bound
T27 construct: Full-length kinase ORF (Promega, Madison, WI, USA) cloned in frame with a NanoLuc-vector was transfected into HEK293T cells; host or cells: HEK293T
Experimental: as §1, §2

[28] = target: T28, SIK3 (Homo sapiens, UniProt Q9Y2K2); settings: 1 µM; 100% no effect, 0% complete tracer displacement
T28 construct: Full-length kinase ORF (Promega, Madison, WI, USA) cloned in frame with a NanoLuc-vector was transfected into HEK293T cells; host or cells: HEK293T
Experimental: as §1, §2

[29] = target: T29, RPS6KA2 (Homo sapiens, UniProt Q15349); settings: 100% no effect, 0% complete tracer displacement, read-out: Tracer bound
T29 construct: Full-length kinase ORF (Promega, Madison, WI, USA) cloned in frame with a NanoLuc-vector was transfected into HEK293T cells; host or cells: HEK293T
Experimental: as §1, §2

[30] = target: T30, SIK1 (Homo sapiens, UniProt P57059); settings: 1 µM; 100% no effect, 0% complete tracer displacement
T30 construct: Full-length kinase ORF (Promega, Madison, WI, USA) cloned in frame with a NanoLuc-vector was transfected into HEK293T cells; host or cells: HEK293T
Experimental: as §1, §2

T10 sequence (Q13470 whole entry): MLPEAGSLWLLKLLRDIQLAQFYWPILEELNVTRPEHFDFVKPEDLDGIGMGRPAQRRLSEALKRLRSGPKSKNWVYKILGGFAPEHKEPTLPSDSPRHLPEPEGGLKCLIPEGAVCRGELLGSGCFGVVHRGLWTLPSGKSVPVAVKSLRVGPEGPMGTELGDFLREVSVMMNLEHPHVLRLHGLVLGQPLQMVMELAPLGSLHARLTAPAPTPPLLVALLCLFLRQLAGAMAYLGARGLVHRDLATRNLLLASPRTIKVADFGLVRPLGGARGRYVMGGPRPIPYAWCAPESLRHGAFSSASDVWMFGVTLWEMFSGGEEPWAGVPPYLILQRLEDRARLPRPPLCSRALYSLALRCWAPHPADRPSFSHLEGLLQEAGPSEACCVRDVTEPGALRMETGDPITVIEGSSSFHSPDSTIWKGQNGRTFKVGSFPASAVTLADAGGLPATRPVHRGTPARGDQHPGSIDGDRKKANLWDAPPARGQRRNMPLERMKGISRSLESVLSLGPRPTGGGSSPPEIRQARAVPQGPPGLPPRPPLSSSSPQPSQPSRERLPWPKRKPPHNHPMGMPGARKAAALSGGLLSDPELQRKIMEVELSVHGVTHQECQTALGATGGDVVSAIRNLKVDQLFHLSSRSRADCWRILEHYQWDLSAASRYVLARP
T8 sequence (Q9NQU5 whole entry): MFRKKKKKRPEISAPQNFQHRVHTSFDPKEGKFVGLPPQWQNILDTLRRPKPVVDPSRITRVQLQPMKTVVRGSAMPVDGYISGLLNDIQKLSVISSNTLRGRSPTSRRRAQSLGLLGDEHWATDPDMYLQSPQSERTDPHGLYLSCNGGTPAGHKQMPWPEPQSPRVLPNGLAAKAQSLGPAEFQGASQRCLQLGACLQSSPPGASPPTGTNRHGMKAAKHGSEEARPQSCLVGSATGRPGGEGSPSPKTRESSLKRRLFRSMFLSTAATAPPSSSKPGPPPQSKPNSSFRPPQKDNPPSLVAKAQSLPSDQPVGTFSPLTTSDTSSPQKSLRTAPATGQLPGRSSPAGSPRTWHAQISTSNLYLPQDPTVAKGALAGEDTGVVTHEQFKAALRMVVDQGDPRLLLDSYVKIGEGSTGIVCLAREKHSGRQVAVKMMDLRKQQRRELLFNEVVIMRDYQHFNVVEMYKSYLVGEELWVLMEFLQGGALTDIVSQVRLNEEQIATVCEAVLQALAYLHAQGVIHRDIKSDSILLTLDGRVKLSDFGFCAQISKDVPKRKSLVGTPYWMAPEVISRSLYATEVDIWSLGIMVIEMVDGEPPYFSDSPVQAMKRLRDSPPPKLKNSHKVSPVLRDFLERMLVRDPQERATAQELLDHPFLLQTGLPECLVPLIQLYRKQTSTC
T30 sequence (P57059 whole entry): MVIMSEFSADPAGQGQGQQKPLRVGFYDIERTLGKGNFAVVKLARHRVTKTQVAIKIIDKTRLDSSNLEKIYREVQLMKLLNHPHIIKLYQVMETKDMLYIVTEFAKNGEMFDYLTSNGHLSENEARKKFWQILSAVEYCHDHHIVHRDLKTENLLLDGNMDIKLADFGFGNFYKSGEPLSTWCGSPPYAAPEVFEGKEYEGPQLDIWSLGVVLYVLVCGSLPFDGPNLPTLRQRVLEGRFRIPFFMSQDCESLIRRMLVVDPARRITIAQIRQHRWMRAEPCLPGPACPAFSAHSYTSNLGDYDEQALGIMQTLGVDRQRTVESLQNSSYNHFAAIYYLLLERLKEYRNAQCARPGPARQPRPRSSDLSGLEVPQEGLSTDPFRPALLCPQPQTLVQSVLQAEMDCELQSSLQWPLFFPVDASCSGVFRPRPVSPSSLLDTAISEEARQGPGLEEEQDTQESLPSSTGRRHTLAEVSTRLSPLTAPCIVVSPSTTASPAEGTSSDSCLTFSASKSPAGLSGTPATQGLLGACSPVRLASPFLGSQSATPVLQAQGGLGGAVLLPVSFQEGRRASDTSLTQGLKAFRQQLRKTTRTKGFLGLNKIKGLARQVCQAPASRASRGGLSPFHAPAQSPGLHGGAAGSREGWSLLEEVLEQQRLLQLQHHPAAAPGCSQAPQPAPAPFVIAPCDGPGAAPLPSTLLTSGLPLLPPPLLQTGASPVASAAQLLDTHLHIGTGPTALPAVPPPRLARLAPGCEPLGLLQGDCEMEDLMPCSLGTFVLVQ
T28 sequence (Q9Y2K2 whole entry): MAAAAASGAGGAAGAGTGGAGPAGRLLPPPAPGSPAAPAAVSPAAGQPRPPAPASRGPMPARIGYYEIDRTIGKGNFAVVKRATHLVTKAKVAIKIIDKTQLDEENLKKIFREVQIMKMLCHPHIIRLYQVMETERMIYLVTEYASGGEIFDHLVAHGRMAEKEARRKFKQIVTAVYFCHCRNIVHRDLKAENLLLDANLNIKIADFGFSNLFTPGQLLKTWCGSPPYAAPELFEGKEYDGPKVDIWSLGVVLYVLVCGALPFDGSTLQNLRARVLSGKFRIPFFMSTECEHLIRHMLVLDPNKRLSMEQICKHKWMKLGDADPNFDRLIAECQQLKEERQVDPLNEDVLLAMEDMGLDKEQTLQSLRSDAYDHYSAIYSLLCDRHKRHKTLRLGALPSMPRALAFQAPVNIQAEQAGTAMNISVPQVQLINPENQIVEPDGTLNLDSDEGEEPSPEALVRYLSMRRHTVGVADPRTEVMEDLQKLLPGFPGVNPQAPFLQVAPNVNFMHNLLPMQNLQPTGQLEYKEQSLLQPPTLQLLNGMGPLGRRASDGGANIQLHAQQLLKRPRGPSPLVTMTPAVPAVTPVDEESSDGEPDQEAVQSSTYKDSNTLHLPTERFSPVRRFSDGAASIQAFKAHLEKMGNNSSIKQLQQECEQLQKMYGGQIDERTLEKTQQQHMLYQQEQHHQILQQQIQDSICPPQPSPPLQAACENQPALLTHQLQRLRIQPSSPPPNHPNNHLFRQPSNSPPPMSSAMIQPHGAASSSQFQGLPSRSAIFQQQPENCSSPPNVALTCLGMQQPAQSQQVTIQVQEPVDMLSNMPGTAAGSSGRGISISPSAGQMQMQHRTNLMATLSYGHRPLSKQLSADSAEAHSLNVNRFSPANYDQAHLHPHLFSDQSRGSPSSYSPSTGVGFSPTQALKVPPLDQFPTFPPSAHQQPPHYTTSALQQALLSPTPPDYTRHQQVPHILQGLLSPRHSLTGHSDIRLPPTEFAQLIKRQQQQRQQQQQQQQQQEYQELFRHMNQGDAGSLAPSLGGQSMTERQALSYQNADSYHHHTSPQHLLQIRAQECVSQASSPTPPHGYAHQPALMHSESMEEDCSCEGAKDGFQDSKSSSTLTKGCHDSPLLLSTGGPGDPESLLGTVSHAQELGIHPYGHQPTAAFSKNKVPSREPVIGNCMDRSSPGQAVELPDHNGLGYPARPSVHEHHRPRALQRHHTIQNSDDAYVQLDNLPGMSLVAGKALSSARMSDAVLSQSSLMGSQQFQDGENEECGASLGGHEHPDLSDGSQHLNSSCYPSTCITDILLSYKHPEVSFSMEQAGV
T14 sequence (Q02156 whole entry): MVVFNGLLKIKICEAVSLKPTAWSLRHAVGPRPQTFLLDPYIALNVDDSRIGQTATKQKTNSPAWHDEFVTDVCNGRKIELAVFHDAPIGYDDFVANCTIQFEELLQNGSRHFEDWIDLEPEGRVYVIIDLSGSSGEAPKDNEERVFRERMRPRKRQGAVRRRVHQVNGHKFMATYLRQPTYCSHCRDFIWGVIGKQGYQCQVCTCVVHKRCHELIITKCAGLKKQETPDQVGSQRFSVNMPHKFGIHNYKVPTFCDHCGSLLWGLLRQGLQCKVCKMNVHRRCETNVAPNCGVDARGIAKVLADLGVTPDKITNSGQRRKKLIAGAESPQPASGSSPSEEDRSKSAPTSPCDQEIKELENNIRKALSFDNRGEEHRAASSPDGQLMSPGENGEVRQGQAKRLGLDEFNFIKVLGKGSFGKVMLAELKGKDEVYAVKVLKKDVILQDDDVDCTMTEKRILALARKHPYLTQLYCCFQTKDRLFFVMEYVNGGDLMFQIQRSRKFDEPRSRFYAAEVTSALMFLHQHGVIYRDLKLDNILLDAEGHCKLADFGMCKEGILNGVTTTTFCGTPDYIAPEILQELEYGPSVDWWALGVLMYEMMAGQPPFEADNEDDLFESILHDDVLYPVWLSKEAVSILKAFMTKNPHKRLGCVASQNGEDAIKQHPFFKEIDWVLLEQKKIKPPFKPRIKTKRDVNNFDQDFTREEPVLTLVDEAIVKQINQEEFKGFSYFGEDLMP
T27 sequence (P19784 whole entry): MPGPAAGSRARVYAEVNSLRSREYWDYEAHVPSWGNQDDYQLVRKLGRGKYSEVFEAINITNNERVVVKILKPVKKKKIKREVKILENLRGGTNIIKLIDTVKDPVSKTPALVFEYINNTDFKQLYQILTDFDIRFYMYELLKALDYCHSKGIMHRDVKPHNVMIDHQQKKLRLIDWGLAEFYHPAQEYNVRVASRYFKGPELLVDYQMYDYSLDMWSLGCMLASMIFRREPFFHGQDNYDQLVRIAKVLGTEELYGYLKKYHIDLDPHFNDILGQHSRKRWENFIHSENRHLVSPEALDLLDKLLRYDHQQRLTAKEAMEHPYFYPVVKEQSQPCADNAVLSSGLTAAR
T7 sequence (P51956 whole entry): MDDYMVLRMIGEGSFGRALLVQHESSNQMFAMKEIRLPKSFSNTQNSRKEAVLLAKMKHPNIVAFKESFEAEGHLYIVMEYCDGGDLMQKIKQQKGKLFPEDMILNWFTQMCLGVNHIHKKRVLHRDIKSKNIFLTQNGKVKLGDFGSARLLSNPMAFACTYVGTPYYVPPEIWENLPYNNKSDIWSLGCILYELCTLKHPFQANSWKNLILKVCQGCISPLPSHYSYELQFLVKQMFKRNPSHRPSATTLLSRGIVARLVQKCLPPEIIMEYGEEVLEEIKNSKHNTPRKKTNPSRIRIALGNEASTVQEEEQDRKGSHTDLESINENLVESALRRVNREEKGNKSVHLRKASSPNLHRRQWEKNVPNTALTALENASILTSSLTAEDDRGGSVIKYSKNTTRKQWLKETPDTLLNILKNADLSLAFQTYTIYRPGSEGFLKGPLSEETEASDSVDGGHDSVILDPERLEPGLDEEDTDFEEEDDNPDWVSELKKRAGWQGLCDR

CNC(=O)c1cc(Oc2ccc(NC(=O)Nc3cc(C(C)(C)C)on3)cc2)ccn1 [MA68, reference compound]
Tracer bound [1]: 95.1% | remaining activity at 1 µM [2]: 120% | remaining activity at 1 µM [3]: 116% | remaining activity at 1 µM [4]: 114% | remaining activity at 1 µM [5]: 59.6% | remaining activity at 1 µM [6]: 76.4% | remaining activity at 1 µM [7]: 120% | remaining activity at 1 µM [8]: 116% | Tracer bound [9]: 42.0% | remaining activity at 1 µM [10]: 114% | remaining activity at 1 µM [11]: 97.7% | remaining activity at 1 µM [12]: 15.1% | remaining activity at 1 µM [13]: 13.9% | remaining activity at 1 µM [14]: 76.2% | remaining activity at 1 µM [15]: 88.2% | remaining activity at 1 µM [16]: 40.7% | remaining activity at 1 µM [17]: 106% | Tracer bound [18]: 102.6% | remaining activity at 1 µM [19]: 108% | remaining activity at 1 µM [20]: 15.3% | remaining activity at 1 µM [21]: 113% | Tracer bound [22]: 113.5% | remaining activity at 1 µM [23]: 99.6% | remaining activity at 1 µM [24]: 102% | remaining activity at 1 µM [25]: 102% | remaining activity at 1 µM [26]: 118% | remaining activity at 1 µM [27]: 110% | Tracer bound [28]: 113.2% | remaining activity at 1 µM [29]: 116% | Tracer bound [30]: 110.5%
